SMILES strings stand for the structures.

The subject of one assay is AMPA receptor. As to the kind of experiment: Voltage clamp (whole cell patch clamp), current induced by AMPA in cultured mouse neocortical neurons. The format is cell-based. The conditions noted are these: for reversibility of the potentiation: after wash out of the compound; for potentiation of the current induced by application of 30 μM AMPA: holding voltage −60 mV. The method, then: Experiments were performed in voltage clamp using conventional whole cell patch clamp methods (Hamill et al., 1981), essentially as described previously (Mathiesen et al., 1998). The following salt solutions were used (mM): NaCl (140), KCl (4), CaCl2 (2), MgCl2 (1), Sucrose (30), Tetrodotoxin (0.0003), Bicuculline Methiodide (0.005) and HEPES (10, pH 7.4). Intracellular solution (mM): CsCl (120), CsF (20), MgCl2 (2), EGTA (10), HEPES (10, pH=7.2).
Mouse neocortical neurons were cultured essentially as described by Drejer et al. (1987). Briefly, the forebrains from embryonic (E17) NMRI mice were removed under sterile conditions. The tissue was chopped in 0.4 mm cubes and the triturated with trypsin (12.5 μg/ml) and DNAse (2.5 μg/ml), 15 min, 37° C. The cells were suspended at a concentration of 1×10^6 cells/ml in a slightly modified DMEM which contained horse serum (10% (v/v)), penicillin (333 U/ml), paraaminobenzoic acid (1 mg/ml), L-glutamine (0.5 mM), insulin (0.08 U/ml) and KCl (23.8 mM). The cell suspension was subsequently inoculated into poly-L-lysine coated 35 mm Petri dishes (2 ml/dish). Glass coverslips (3.5 mm) were placed in the dishes before coating. After 24 hr in culture, the medium was replaced by freshly made medium containing 1% N2 supplement instead of serum.
The cells were kept in culture for 7–14 days at 37° C. (5% CO2/95% O2) before experiments were carried out.
Electronics, programs and data acquisition: The amplifier used was the EPC-9 (HEKA-electronics, Lambrect, Germany) run by a Power Macintosh G3 computer via an ITC-16 interface. Experimental conditions were set with the Pulse-software accompanying the amplifier. Data were low pass filtered and sampled directly to hard-disk at a rate of 3 times the cut-off frequency.
Pipettes and electrodes: Pipettes were pulled from borosilicate glass (Modulohm, Copenhagen, Denmark) using a horizontal electrode puller (Zeitz-Instrumente, Augsburg, Germany). The pipette resistances were 1.7–2.4 MW in the salt solutions used in these experiments. The pipette electrode was a chloridized silver wire, and the reference was a silverchloride pellet electrode (In Vivo Metric, Healdsburg, USA) fixed to the experimental chamber. The electrodes were zeroed with the open pipette in the bath just prior to sealing.
Experimental procedure: Coverslips were transferred to a […] experimental chamber mounted on the stage of an inverted microscope (IMT-2, Olympus) supplied with Nomarski optics. The neurons were continuously superfused with extracellular saline at a rate of 2.5 ml/min. After giga-seal formation (1–5 GW, success-rate≈90%) the whole cell configuration was attained by suction.
The cells were held at a holding voltage of −60 mV and at the start of each experiment the current was continuously measured for at least 30 sec to ensure a stable leak current. AMPA-containing solutions were delivered to the chamber through a custom-made gravity-driven flowpipe, the tip of which was placed approximately 50 μm from the cell. Application was triggered when the tubing connected to the flow pipe was compressed by a valve controlled by the Pulse-software. AMPA (30 μM) was applied for 1 sec every 45 sec. After obtainment of responses of a repeatable amplitude the compound to be tested was included in both the chamber and in the AMPA-containing solution. The compound was present until responses of a new repeatable was obtained.
The sample interval in all experiments was 310 μsec.
All experiments were performed at room temperature (20–25° C.).

Assay [1] has as its target ionotropic quisqualate (AMPA) receptors. As to the kind of experiment: In vitro inhibition of 3H-AMPA binding. As to conditions: 5 nM 3H-AMPA, rat cerebral cortex membranes, 30 min at 2° C.; read-out: IC50 (concentration of the test substance which inhibits the specific binding of 3H-AMPA by 50%). The text has this: L-glutamate (GLU) is the major excitatory neurotransmitter in the mammalian central nervous system. From electrophysiological- and binding studies, there appear to be at least three subtypes of GLU receptors, tentatively named N-methyl-D-aspartate (NMDA)-, quisqualate- and kainate receptors. GLU receptor subtypes sensitive to quisqualate and kainate as a group are often referred to as non-NMDA receptors. Receptor binding studies using the labelled agonists ^3H-AMPA (α-amino-3-hydroxy-5-methyl-4-isoxazolepropionic acid) (for quisqualate receptors) and ^3H-kainate (for kainate receptors) have shown different antagonist selectivities and regional distribution. AMPA has been known for several years to be a potent and selective agonist at the traditionally named quisqualate receptors. Activation of quisqualate receptors by AMPA is associated with Na^+ influx and K^+ efflux leading to depolarization.
The non-NMDA receptors have recently been reclassified to include the quisqualate activated metabotropic receptor type, linked to the inositol triphosphate and diacylglycerate metabolism. […] Selective activation of the metabotropic type has been claimed for trans-ACPD. Recently, the potent and competitive non-NMDA receptor antagonists CNQX and NBQX have been described, and CNQX have been reported not to block the effect of quisqualate at the metabotropic receptor subtype. ^3H-AMPA is a selective radioligand for labelling the ionotropic quisqualate (AMPA) receptors.
Preparations are performed at 0–4° C. unless otherwise indicated. Cerebral cortex from male Wistar rats (150–200 g) is homogenized for 5–10 sec in 20 ml Tris-HCl (30 mM, pH 7.4) using an Ultra-Turrax homogenizer. The suspension is centrifuged at 27,000×g for 15 min and the pellet is washed three times with buffer (centrifuged at 27,000×g for 10 min). The washed pellet is homogenized in 20 ml of buffer and incubated on a water bath (37° C.) for 30 min to remove endogenous glutamate and then centrifuged for 10 min at 27,000×g. The pellet is then homogenized in buffer and centrifuged at for 10 min at 27,000×g. The final pellet is resuspended in 30 ml buffer and the preparation is frozen and stored at −20° C.
The membrane preparation is thawed and centrifuged at 2° C. for 10 min at 27,000×g for 10 min. The pellet is washed twice with 20 ml 30 mM Tris-HCl containing 2.5 mM CaCl2, pH 7.4 using an Ultra-Turrax homogenizer and centrifuged for 10 min at 27,000×g. The final pellet is resuspended in 30 mM Tris-HCl containing 2.5 mM CaCl2 and 100 mM KSCN, pH 7.4 (100 ml per g of original tissue) and used for binding assays. Aliquots of 0.5 (0.2) ml are added to 25 (20) μl of test solution and 25(20) μl of ^3H-AMPA (5 nM, final concentration), mixed and incubated for 30 min at 2° C. Non-specific binding is determined using L-glutamate (0.6 mM, final concentration). After incubation the 550 μl samples are added 5 ml of ice-cold buffer and poured directly onto Whatman GF/C glass fibre filters under suction and immediately washed with 5 ml of ice-cold buffer. The 240 μl samples are filtered over glass fibre filter using a Skatron cell harvrester. The filters are washed with 3 ml ice-cold buffer. The amount of radioactivity on the filters is determined by conventional liquid scintillation counting. Specific binding is total binding minus non-specific binding.
The test value will be given as the IC50 (the concentration (μM) of the test substance which inhibits the specific binding of ^3H-AMPA by 50%)

On to `Cc1cc2c(cc1S(=O)(=O)N1CCCCC1)S(=O)(=O)NC(C1CCCC1)N2` (stereo not drawn) [Compound 114, 3-Cyclopentyl-6-methyl-7-piperidinosulfonyl-1,2,3,4-tetrahydro-1,2,4-benzothia-diazine-1,1-dioxide], for which, in the assay with AMPA receptor (FIG. 8), the “concentration dependence of the effect” value is reported as “concentration-dependent”. The “reversibility of the potentiation” value with AMPA receptor is recorded as “reversible”. Also, the “potentiation of the current induced by application of 30 μM AMPA” value (“potentiation of the current induced” below) with AMPA receptor (compound 3 μM) is “potentiated”. Further, the IC50 in assay [1] is 33 µM.

On to `CN1CCN(S(=O)(=O)c2ccc3c(c2)S(=O)(=O)NC(C2CCCCC2)N3)CC1` (stereo not drawn) [Compound 61, 3-Cyclohexyl-7-(4′-methylpiperazino)sulfonyl-1,2,3,4-tetrahydro-1,2,4-benzothiadiazine-1,1-dioxide], for which the IC50 in assay [1] was 8.5 µM.

As for `O=S1(=O)NC(C2CCCCC2)Nc2ccc(S(=O)(=O)N3CCOCC3)cc21` (stereo not drawn) [Compound 63, 3-Cyclohexyl-7-morpholinosulfonyl-1,2,3,4-tetrahydro-1,2,4-benzothiadiazine-1,1-dioxide], the “reversibility of the potentiation” value in the assay on AMPA receptor is reported as “reversible”. Besides, in the assay with AMPA receptor (compound 3 μM), the “persistence of the effect after wash out” value was “persits for several minutes after wash out” and the “potentiation of the current induced” value is “potentiated”. In assay [1], the IC50 was determined as 6 µM.

For the molecule `Cc1cc2c(cc1S(=O)(=O)N1CCOCC1)S(=O)(=O)NC(C1CCCCC1)N2` (stereo not drawn) [Compound 115, 3-Cyclohexyl-6-methyl-7-morpholinosulfonyl-1,2,3,4-tetrahydro-1,2,4-benzothiadiazine-1,1-dioxide], the “reversibility of the potentiation” value with AMPA receptor was “reversible”. Besides, the “potentiation of the current induced” value in the assay with AMPA receptor (compound 10 μM) was “potentiated”. In addition, in assay [1], the IC50 turned out to be 7 µM.
